In ChEMBL document CHEMBL3301562, “MMV Box screening against Plasmodium falciparum protein kinases and aminoacyl tRNA synthetases”:

Tests used:
Type in all cases: functional
[1] = biological target: Lysine--tRNA ligase (Plasmodium falciparum (isolate 3D7), UniProt Q8IDJ8); assay: MMV: KRS recombinant Plasmodium falciparum Lysyl-tRNA-synthetase, assay with yeast tRNA, ATP, and lysine and 3 uM MMV malaria box compound, assay read out with kinase glo as % inhibition.
[2] = biological target: T1, Calcium-dependent protein kinase 4 (Plasmodium falciparum (isolate 3D7), UniProt Q8IBS5); assay: MMV: CDPK4 Protein kinase inhibition assay using recombinant PfCDPK4, syntide2 peptide substrate, ATP and KinaseGlo to measure % inhibition at 1 uM MMV box compound.
T1 sequence (Q8IBS5 whole entry): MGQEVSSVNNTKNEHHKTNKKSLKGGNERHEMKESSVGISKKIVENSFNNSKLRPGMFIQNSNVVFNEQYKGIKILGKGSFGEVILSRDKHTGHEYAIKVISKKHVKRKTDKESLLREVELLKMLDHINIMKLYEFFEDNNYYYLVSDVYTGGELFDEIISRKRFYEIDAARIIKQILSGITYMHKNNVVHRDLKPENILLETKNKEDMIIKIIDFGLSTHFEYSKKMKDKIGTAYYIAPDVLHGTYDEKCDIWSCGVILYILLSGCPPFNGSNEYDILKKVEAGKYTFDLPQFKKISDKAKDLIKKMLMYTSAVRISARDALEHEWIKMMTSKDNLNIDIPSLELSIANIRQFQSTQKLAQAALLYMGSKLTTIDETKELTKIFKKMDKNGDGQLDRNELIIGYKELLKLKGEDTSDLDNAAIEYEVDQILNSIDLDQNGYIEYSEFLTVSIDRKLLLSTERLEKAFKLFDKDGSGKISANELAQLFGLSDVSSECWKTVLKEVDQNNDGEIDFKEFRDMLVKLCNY

[3] = biological target: T2, Putative uncharacterized protein pk7 (Plasmodium falciparum, UniProt O96214); assay: Final concentrations were 1 uM ATP, 2 mM DTT, 20 mM MgCl2, 2 mM MnCl2, 0.01% BSA, and 6 ug/ml PK7, in a buffer of 20 mM Tris-HCl (pH 7.5). The enzyme itself was the only substrate present (since autophosphorylation occurs); 100 uM 1NA-PP1 was used as a control inhibitor. Incubation time was 3 hours.
T2 sequence (O96214 whole entry): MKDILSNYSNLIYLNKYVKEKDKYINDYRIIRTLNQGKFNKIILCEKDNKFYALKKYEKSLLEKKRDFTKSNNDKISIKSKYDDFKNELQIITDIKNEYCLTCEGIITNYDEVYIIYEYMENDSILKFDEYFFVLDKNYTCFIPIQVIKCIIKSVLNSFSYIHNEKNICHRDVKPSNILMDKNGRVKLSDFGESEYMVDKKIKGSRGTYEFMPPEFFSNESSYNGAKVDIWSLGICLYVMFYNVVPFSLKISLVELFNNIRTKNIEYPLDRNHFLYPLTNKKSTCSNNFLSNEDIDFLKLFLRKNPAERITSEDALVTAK

[4] = biological target: Calcium-dependent protein kinase 1 (Plasmodium falciparum, UniProt P62344); assay: MMV: CDPK1 Protein kinase inhibition assay using recombinant PfCDPK1, syntide 2 peptide substrate, ATP and KinaseGlo to measure % inhibition at 1 uM MMV box compound.
[5] = biological target: T3, Proline--tRNA ligase (Plasmodium falciparum (isolate 3D7), UniProt Q8I5R7); assay: MMV: ProRS recombinant Plasmodium falciparum Prolyl-tRNA-synthetase, assay with yeast tRNA, ATP, and proline and 3 uM MMV malaria box compound, assay read out with kinase glo as % inhibition.
T3 sequence (Q8I5R7 whole entry): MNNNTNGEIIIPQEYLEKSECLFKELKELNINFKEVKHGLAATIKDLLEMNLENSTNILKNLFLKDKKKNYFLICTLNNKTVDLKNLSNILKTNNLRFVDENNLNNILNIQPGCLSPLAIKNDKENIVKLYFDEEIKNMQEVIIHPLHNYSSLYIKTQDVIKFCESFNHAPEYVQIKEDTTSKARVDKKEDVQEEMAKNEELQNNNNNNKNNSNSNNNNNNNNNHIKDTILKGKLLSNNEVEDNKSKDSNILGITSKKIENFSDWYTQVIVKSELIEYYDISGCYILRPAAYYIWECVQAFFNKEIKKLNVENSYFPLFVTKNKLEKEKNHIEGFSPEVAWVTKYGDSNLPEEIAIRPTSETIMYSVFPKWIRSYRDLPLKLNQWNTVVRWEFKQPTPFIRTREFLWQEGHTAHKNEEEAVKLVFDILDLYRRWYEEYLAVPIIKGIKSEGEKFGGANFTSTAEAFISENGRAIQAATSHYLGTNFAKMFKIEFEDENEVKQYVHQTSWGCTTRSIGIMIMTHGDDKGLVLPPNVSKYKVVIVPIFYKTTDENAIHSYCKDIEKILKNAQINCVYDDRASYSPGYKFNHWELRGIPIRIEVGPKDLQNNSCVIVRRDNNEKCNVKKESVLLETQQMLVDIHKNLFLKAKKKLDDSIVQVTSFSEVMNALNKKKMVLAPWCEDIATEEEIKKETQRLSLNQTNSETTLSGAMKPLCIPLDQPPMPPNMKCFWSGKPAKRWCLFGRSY

[6] = biological target: T4, Mitogen-activated protein kinase (Plasmodium falciparum, UniProt Q25917); assay: Final concentrations were 1 uM ATP, 0.5 mM DTT, 1 mM MgCl2, 0.5 mg/mL BSA, and 10 ug/ml MAP2 in a buffer of 50 mM HEPES (pH 7.0). 0.5 mg/mL histone III-S served as the substrate (13); 100 uM AMP-PNP, an ATP analog, was used as a control inhibitor. Incubation time was 4 hours.
T4 sequence (Q25917 whole entry): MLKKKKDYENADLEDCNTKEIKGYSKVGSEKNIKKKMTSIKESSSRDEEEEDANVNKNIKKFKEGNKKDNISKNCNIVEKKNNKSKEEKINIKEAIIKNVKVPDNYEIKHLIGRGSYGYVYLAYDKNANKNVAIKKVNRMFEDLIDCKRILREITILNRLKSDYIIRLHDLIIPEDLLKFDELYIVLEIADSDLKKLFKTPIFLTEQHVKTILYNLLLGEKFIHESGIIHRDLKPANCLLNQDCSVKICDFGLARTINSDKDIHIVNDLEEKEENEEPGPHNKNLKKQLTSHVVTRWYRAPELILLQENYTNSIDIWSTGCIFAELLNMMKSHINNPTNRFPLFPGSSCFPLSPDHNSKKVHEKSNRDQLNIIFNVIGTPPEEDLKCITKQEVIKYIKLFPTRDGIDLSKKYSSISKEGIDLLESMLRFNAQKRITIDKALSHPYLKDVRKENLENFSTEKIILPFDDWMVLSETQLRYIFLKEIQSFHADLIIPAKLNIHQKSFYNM

[7] = biological target: T5, Cdk-related protein kinase 6 (Plasmodium falciparum, UniProt O77239); assay: Final concentrations were 1.5 uM ATP, 5 mM MnCl2, and 15 ug/ml PK6 in a buffer of 100 mM Tris-HCl (pH 7.5). 50 ug/mL MBP was provided as the substrate; 10 uM staurosporine was used as a control inhibitor. Incubation time was 3 hours and 40 minutes.The catalytic activity of each kinase was considered proportional to ATP consumed, as determined from measurements of residual [ATP] with the luciferase-based reagent Kinase-Glo (Promega) following incubation. Luminescence (proportional to residual [ATP]) was measured on the plate readers FLx800 (BioTek Instruments, Winooski, VT, USA) and MicroBeta2.
T5 sequence (O77239 whole entry): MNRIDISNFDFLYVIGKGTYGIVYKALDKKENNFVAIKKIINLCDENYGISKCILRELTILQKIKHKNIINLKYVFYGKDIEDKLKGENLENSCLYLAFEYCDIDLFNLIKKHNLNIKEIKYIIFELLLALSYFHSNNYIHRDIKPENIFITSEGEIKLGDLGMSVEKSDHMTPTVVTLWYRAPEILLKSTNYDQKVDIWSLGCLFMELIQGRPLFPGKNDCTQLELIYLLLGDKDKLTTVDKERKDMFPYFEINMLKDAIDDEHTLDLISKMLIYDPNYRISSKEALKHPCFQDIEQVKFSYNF

Chain of Calcium-dependent protein kinase 1 (P62344 whole entry): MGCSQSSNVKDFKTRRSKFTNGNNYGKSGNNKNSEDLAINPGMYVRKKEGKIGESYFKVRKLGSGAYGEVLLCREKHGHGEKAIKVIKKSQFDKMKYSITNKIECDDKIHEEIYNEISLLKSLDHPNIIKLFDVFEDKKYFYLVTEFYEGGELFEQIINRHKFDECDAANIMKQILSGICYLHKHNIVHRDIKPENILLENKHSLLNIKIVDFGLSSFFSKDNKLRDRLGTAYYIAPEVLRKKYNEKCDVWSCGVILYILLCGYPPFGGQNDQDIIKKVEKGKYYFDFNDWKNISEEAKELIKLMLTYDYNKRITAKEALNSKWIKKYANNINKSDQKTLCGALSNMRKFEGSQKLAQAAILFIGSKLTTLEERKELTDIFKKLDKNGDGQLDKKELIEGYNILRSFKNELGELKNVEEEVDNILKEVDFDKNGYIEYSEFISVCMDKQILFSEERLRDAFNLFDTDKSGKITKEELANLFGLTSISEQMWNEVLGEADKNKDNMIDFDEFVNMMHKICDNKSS
Chain of Lysine--tRNA ligase (Q8IDJ8 whole entry): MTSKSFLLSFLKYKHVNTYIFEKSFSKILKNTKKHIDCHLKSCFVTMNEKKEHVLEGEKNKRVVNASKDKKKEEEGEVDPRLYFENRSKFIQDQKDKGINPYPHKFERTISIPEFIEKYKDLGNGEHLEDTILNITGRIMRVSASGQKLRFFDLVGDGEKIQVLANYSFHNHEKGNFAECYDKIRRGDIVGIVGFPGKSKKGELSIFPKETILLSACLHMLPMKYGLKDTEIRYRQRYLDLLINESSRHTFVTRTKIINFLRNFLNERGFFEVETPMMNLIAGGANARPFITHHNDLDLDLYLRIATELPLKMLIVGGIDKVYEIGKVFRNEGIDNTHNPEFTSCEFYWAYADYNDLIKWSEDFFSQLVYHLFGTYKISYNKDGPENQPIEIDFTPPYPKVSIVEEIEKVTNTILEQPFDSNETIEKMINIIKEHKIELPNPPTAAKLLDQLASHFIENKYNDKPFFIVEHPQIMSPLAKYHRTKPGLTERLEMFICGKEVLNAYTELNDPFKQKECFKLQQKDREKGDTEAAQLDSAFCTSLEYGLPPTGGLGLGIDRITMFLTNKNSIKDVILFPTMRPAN

Compound | IC50 [1] | IC50 [2] | IC50 [3] | IC50 [4] | IC50 [5] | IC50 [6] | IC50 [7]
COc1ccc(-c2nonc2NC(=O)c2cccc(Cl)c2)cc1OC | > 2500 nM | > 1000 nM | > 1000 nM | > 1000 nM | > 2500 nM | > 1000 nM | > 1000 nM
CCOc1cc2c(cc1OCC)C(c1cc(C)c(O)c(C)c1)NCC2 (configuration not stated) | > 2500 nM | > 1000 nM | > 1000 nM | > 1000 nM | > 2500 nM | > 1000 nM | > 1000 nM
O=C1CC(O)(C(F)(F)C(F)(F)F)Oc2ccccc21 (configuration not stated) | > 2500 nM | > 1000 nM | > 1000 nM | > 1000 nM | > 2500 nM | > 1000 nM | > 1000 nM
CC(C)c1ccc(CNCC(O)c2ccccc2)cc1 (configuration not stated) | > 2500 nM | > 1000 nM | > 1000 nM | > 1000 nM | > 2500 nM | > 1000 nM | > 1000 nM
Oc1ccc(Br)cc1CN1CCN(Cc2cccc(F)c2)CC1 | > 2500 nM | > 1000 nM | > 1000 nM | > 1000 nM | > 2500 nM | > 1000 nM | > 1000 nM
CN(C)c1ccc(N2C(N)=NC(N)=NC2(C)C)cc1 | > 2500 nM | > 1000 nM | > 1000 nM | > 1000 nM | > 2500 nM | > 1000 nM | > 1000 nM
Oc1c(CN2CCN(c3ccccc3F)CC2)cc(Br)c2cccnc12 | > 2500 nM | > 1000 nM | > 1000 nM | > 1000 nM | > 2500 nM | > 1000 nM | > 1000 nM
CCCCc1c(C)nc2c(OC)cccc2c1O | > 2500 nM | > 1000 nM | > 1000 nM | > 1000 nM | > 2500 nM | > 1000 nM | > 1000 nM
CCOC(=O)C1CCN(C(=O)CN2C(=O)c3ccccc3C2c2c[nH]c3ccccc23)CC1 (configuration not stated) | > 2500 nM | > 1000 nM | > 1000 nM | > 1000 nM | > 2500 nM | > 1000 nM | > 1000 nM
CCOc1ccc(CCNC(=O)c2cccs2)cc1OCC | > 2500 nM | > 1000 nM | > 1000 nM | > 1000 nM | > 2500 nM | > 1000 nM | > 1000 nM
Cc1c(C)n(CC(O)CNC2CCCCC2C)c2ccccc12 (configuration not stated) | > 2500 nM | > 1000 nM | > 1000 nM | > 1000 nM | > 2500 nM | > 1000 nM | > 1000 nM
